From a melting point compilation (Tetko et al.; mined from patent text by program, amines drawn as free bases though some values may be those of a salt) come the findings set out here.

For `CN(CC(=O)O)c1cc(Br)ccc1[N+](=O)[O-]`, the melting point was 152 to 155 °C. With `COC[C@H]1O[C@H](ONC(=O)c2nc(-c3ccc(Cl)c(OC)c3F)cc(N)c2Cl)[C@H](OC)[C@@H](OC)[C@@H]1OC` the figure was 184 to 187 °C; with `CCN(CC)CC1CN(c2c(F)cc3c(=O)c(C(=O)O)cn(C4CC4)c3c2F)CCO1` (stereo unspecified), 155 to 157 °C; with `CN1C(=O)CC(c2ccc(CO)cc2)C1C(O)c1ccc(-c2ccccc2)s1` (stereo unspecified), 205 °C. Under `COc1cc(C=C2C(=O)CCc3c2ccc(OC)c3OC)c([N+](=O)[O-])cc1OC` stands 70 to 72 °C; under `CC(C)[C@H](NC(=O)CCC(=O)c1ccc(F)cc1)C(=O)O`, 103 to 105 °C. `O=C1C=C(c2ccccc2C(F)(F)F)CO1` displayed a melting point of 49 to 50 °C. `CC(=O)NCC(=O)NCC(=O)N1CC1C#N` (stereo unspecified) came in with a melting point of 70 to 76 °C. In the case of `N#Cc1ccc(C=Cc2ccccn2)cc1`, the melting point was 98 °C.

Take `Cc1ccc(Oc2cccc(-c3nnc(Nc4ccc(Cl)c(Cl)c4)s3)c2)cc1`: the melting point fell in the range of 210 to 211 °C. As to `CCOC(=O)C(C(=O)OCC)C(=O)C(C)Oc1cc(Cl)c(Cl)cc1Cl` (stereo unspecified), the melting point lay in the range of 62 to 66 °C. Take `Cc1c([N+](=O)[O-])ccc(OCc2ccccc2)c1Cl`: the melting point lay within 73 to 74.5 °C. Under `COc1ccccc1-c1nc(N)ncc1-c1ccc(=O)[nH]n1` stands 273 °C; under `CC(=O)CC(=O)NCC1(C)CC(NC(=O)CC(C)=O)CC(C)(C)C1` (stereo unspecified), 144 to 147 °C. Turning to `CCc1cccc2c(-c3nc(OC)cc(OC)n3)c(C)[nH]c12`, the melting point was 90.3 to 94.8 °C. Compound `CCN(c1cc(Cl)c(Cl)cc1Cl)C(C(=O)O)c1ccccc1OC` (stereo unspecified) registered a melting point of 92.7 °C. In the case of `Cc1c(F)cccc1Cc1c(-c2ccccc2)c2ccccn2c1C(=O)N1CCN[C@@H](CC(=O)NCC2CCOCC2)C1`, the melting point amounted to 147 °C. For `O=C(Nc1ccccc1)c1cn(-c2ccccc2)c2ccccc2c1=O`, the melting point fell in the range of 203 to 205 °C. The compound `N#Cc1ccc(OCC(F)(F)F)c(F)c1` registered a melting point of 62 to 67 °C. Consider `CCCc1nc(Cl)nc(NCCO)n1`, for which the melting point was 87 to 88 °C.

Compound `CC(=Cc1ccsc1Cl)[N+](=O)[O-]` registered a melting point of 73 to 76 °C. `COc1ccc(-c2nnc3c4ccccc4c(CC#N)nn23)cc1` had a melting point of 252 to 254 °C. Consider `CCCc1nc2c(N)nc3ccccc3c2n1CCC1(O)CCOCC1`, for which the melting point lay in the range of 181 to 183 °C. Take `O=C1C=CC(O)(c2nc3ccccc3s2)C(Sc2ccccc2)C1` (stereo unspecified): the melting point was found to be 66 °C. On to `COCCCN1CCC(CNC(=O)c2cc(Cl)c(N)nc2OC)CC1`, for which the melting point was determined as 103 °C.

As to `CCc1ccc2c(c1)C1(CCN(C(=O)Nc3cnc(-c4ccccc4)cn3)CC1)OC2=O`, the melting point lay within 176 to 178 °C. Compound `Cc1ccccc1-c1nc2c(o1)C(=O)c1ccccc1C2=O` registered a melting point of 212 °C. The compound `O=c1c2c(Cl)cc(Cl)cc2n(Cc2ccccc2)c(=O)n1-c1ccccc1` returned a melting point of 169 to 174 °C. Under `CC(C)(C)OCC(O)CN` (stereo unspecified) stands 41 to 43 °C. With `CC(=O)N(O)Cc1ccc2c(c1)Cc1ccccc1-2` the figure was 182 to 183 °C; with `CN(c1cc(OCCCS(C)(=O)=O)cc2cc(C3=NCC(CN4CCOCC4)S3)[nH]c12)S(=O)(=O)c1ccccn1` (stereo unspecified), 168 to 169 °C; with `COc1ccc2c(C(=O)c3ccc(OC4CCCCC4n4ccnc4)cc3)c(-c3ccc(OCCN4CCCC4)cc3)sc2c1` (stereo unspecified), 68 to 78 °C. In turn, `O=C1c2ccc(Cl)cc2CCc2c(O)cccc21` displayed a melting point of 185 °C. `COc1ccc(-c2nc(S(=O)(=O)c3ccc(Cl)cc3)[nH]c2-c2ccc(OC)cc2)cc1` came in with a melting point of 187 to 188 °C.

In turn, `CCCCNC(=O)[C@@H](C[C@H](O)[C@H](CC1CCCCC1)NC(=O)OC(C)(C)C)C(C)(C)O` gave a melting point of 91 to 93 °C. On to `Nc1cccc(-c2nc3sccn3c2-c2ccnc(N[C@@H]3CCCN(S(=O)(=O)c4ccc(Cl)cc4)C3)n2)c1`, for which the melting point was 226 to 228 °C. As for `CC(C)(C)c1ccc(Cn2c(=O)n(Cc3ccc(C(C)(C)C)cc3)c3ccccc32)cc1`, the melting point fell in the range of 164 to 168 °C.

The compound `Cc1ccc(-c2cn(C)c(-c3nc(-c4ccc(C)s4)cn3C)n2)s1` yielded a melting point of 220 to 228 °C. With `CON1C(C)(C)CC(OC(=O)c2cc(C(C)(C)C)c(O)c(C(C)(C)C)c2)CC1(C)C` the figure was 126 to 128 °C; with `O=C(NC(=O)c1c(F)cccc1F)Nc1cccc(S(=O)(=O)C(F)(F)C(F)Cl)c1` (stereo unspecified), 192 to 194 °C; with `CC(C)=CCC(C(=O)O)C(=O)O`, 96 to 97 °C. With `O=C(Nc1ccc(N(CCCl)CCCl)cc1)Nc1cccc([N+](=O)[O-])c1` the figure was 246 to 247 °C; with `c1ccc(-n2c(-c3ccc(-c4ccc(-c5nc6c7ccccc7c7ccccc7c6n5-c5ccccc5)cc4)cc3)nc3c4ccccc4c4ccccc4c32)cc1`, 402 °C. In turn, `COc1ccc(N(c2ccc(OC)cc2)c2ccc(-c3ccc(N(c4ccc(OC)cc4)c4ccc5ccc6cccc7ccc4c5c67)cc3)cc2)cc1` registered a melting point of 211 to 213 °C.

In turn, `COC1(c2ccc(Sc3ccc4c(c3)CCC(=S)N4C)s2)CCOCC1` displayed a melting point of 100 to 102 °C. In turn, `CC(c1oc2ccccc2c(=O)c1-c1cccc(F)c1)n1nc(-c2cccc(OC(F)(F)F)c2)c2c(N)ncnc21` (stereo unspecified) displayed a melting point of 155 to 157 °C. With `COC(=O)c1cc(C(=O)c2c(C)c(NC(=O)c3cccc(O)c3)c3ccccn23)ccc1N`, the melting point stood at 278 °C. Compound `CCN(CC)c1ccc(C2(c3ccc(N(CC)CC)cc3N(CC)CC)OC(=O)c3c(Cl)c(Cl)c(Cl)c(Cl)c32)c(C)c1` (stereo unspecified) came in with a melting point of 162 to 164 °C.

In turn, `CN1CCN(C(=O)CC2c3ccccc3C(=O)N2c2ccc(Cl)cn2)CC1` (stereo unspecified) came in with a melting point of 190 to 193 °C. The compound `N#Cc1c(N2CCN(C(=O)c3ccc(C(F)(F)F)cc3)CC2)c2ccccc2n(Cc2ccc(F)cc2)c1=O` yielded a melting point of 181 to 185 °C. Regarding `c1ccc(-c2ccc(-c3nc4n(n3)CCc3ccccc3-4)cc2)cc1`, the melting point fell in the range of 143 to 144 °C.

`CCOC(=O)C1(c2cccc(OCc3ccc4c(ccc(=O)n4C)c3)c2)CCOCC1` showed a melting point of 109 to 110 °C. With `Cn1ncc2c1SSSSS2` the figure was 57 to 60 °C. With `CC(=O)COc1ccc([N+](=O)[O-])cc1` the figure was 77 to 78 °C; with `Cc1cc(C=CC#N)c(Cl)cc1F`, 90 to 91 °C; with `CN1CCN(c2ccc(N)cc2C(F)(F)F)CC1`, 121 to 123 °C. In turn, `CC(C)(C)c1ccc2c(O)ccnc2c1` returned a melting point of 207 to 209 °C. As to `COc1ccc(CSc2cccc(C(=O)Nc3ccc(C#N)cn3)c2)cc1`, the melting point lay within 163 to 164 °C. Take `CC(C)(C)OC(=O)NCc1nc(C(=O)ON2C(=O)CCC2=O)cs1`: the melting point amounted to 171 °C. As to `O=C(Nc1cc(S(=O)(=O)N(CCO)CCO)sc1Cl)c1cnn2c(C(F)(F)F)cc(-c3ccc(C(F)(F)F)cc3)nc12`, the melting point was found to be 217 °C. Under `CC(C)c1nc(C(C)C)c(CCc2ccccc2)c(-c2ccc(F)cc2)c1CO` stands 158 to 159 °C; under `C=CCC(CC)(CC=C)C(=O)O[C@H]1C[C@H](O)C=C2C=C[C@H](C)[C@H](CC[C@@H]3C[C@@H](O)CC(=O)O3)[C@H]21`, 99 to 100 °C. For the compound `CCS(=O)(=O)CCN1CCCCC1`, the melting point lay in the range of 45 to 47 °C. `Cc1cccc(C)c1NC(=O)N1CC(C)(C)NC1=S` registered a melting point of 242 to 243 °C. Compound `CCCc1cn(C)c2c(=O)[nH]c(-c3cc(S(=O)(=O)N4CCN(CCOC(C)=O)CC4)ccc3OCC)nc12` had a melting point of 192 °C. Consider `Nc1ncc(Oc2ccc(Cl)cc2)c(N2CCNCC2)n1`, for which the melting point fell in the range of 93 to 95 °C. As to `Clc1ccc(CCOc2ncnc3ncccc23)cc1`, the melting point lay in the range of 126 to 128 °C. Turning to `Cc1ccc(O)c(Cn2c(N)nc3ccc(CNc4cccc(OC(F)(F)F)c4)cc32)n1`, the melting point was 156 °C.

Regarding `COC(CC(=O)c1cccc(Br)c1)C(=O)O` (stereo unspecified), the melting point is 82.5 to 83.5 °C. Compound `CC(C)(C)OC(=O)N1CCN(c2c(F)cc(N3CC(CO)OC3=O)cc2F)CC1` (stereo unspecified) displayed a melting point of 164 to 166 °C. With `CCCN1C(=O)COc2ccc(N3C(=O)C(C)=C(C)C3=O)cc21` the figure was 147 to 149 °C; with `COc1ccc2c(c1)C(=O)N(CCN(C)CCN1C(=O)c3cc(OC)c(OC)cc3C(C)(C)C1=O)C(=O)C2(C)C`, 118 to 120 °C.

`Cn1cc(-c2ccccc2)nc1CO` had a melting point of 191 to 192 °C. With `O=C(NCCC12CC3CC(CC(C3)C1)C2)c1cc(-c2cccnc2C(=O)O)ccc1Cl`, the melting point lay within 108 to 111 °C. With `COc1nc(Cl)nc(NC#N)n1` the figure was > 260 °C; with `COc1ccc2c(c1)C(=O)N(c1ccc3ncsc3c1)C2`, 204 to 207 °C. Compound `CC(=O)Nc1ccc(C(=O)Nc2ccccc2NC(=O)CN)cc1` registered a melting point of 215 to 218 °C. With `CC(C)CCC1=Cc2c(F)cc(F)cc2N(C)C1C` (stereo unspecified), the melting point lay in the range of 154 to 155 °C.

Compound `CC(=O)C1C(=O)N(C(=O)NC(=O)c2ccccc2)c2ccccc21` (stereo unspecified) showed a melting point of 198 °C. As for `CCOC(=O)C(=NOC)C(C)=NNC(C)=O`, the melting point lay in the range of 190 to 192 °C.

`CCOC(=O)C1(NC(=O)Nc2cccc(C)c2)N=C(c2ccc(Cl)cc2)c2ccccc2-n2c(C)nnc21` (stereo unspecified): the melting point was in the range of 168 to 172 °C. With `c1cc(Nc2ccc3[nH]ncc3c2)ccn1` the figure was 189 to 190 °C; with `CCOC(=O)c1ccc(-c2ccnc(Nc3cc(OC)c(OC)c(OC)c3)n2)cc1`, 181 to 182 °C; with `CSc1nc(=O)[nH]cc1Cl`, 254 °C. Consider `Nc1ccc2[nH]c(CO)cc2c1`, for which the melting point lay within 159 to 160 °C. For the compound `O=C(Nc1c(Cl)cccc1Cl)N(Cc1ccccc1)CC1(c2ccccc2)CCCC1`, the melting point lay in the range of 125 to 127 °C.

Broadly, the melting point is the temperature of the solid-liquid transition.
